One assay concerns MSSA. Description: plug-based drug screening in human blood plasma/LB, MSSA. The settings on record: MSSA in 1:1 human blood plasma/LB; breakpoint concentration; 7.5 h at 37° C.
Assay [1] has as its system Methicillin Resistant S. aureus (MRSA, ATCC#43300). Description: plug-based microfluidic antibiotic susceptibility screen with alamarBlue viability indicator. To be noted: FIG. 2c; breakpoint concentration; negative control VCM, positive control blank. (In general: The colour change of resazurin is a common sign of viable cells or microbes.)
For assay [2] the test system is unchanged. Description: macro-scale experiments, MRSA.
In assay [3] the test system is Staphylococcus aureus ATCC#25923 (MSSA). Description: antibiotic testing on Mueller Hinton agar plates, MSSA. The settings on record: 30° C; even after 40 h.
Experimental: Plates were made from Mueller Hinton Agar (Fluka, Switzerland). After autoclaving, the agar was cooled and antibiotics were added and 20 mL plates were poured. For CFX and OXA testing, 50 μL of MRSA and MSSA bacterial culture at 4×10^3 CFU/mL was spread onto separate TSA plates. The plates were incubated at 30° C. After 16.5 h and 40 h the plates were examined for colonies. […] For AMP, ERT, LVF, and VCM, 5 μL of culture at 2×10^4 CFU/mL were spread onto plates, and the plates were incubated at 37° C. for 12 h. After 12 h, growth of colonies on the plates was considered resistance to the antibiotic and no colonies on the plates were considered sensitivity to the antibiotic. For all tests, control plates with no antibiotic were inoculated to ensure that each plate tested received many CFU during inoculation.
Assay [4] concerns Methicillin Resistant S. aureus (MRSA). The settings on record: 24 mg/L; cited from earlier work.
The subject of assay [5] is Methicillin Sensitive S. aureus (MSSA). To be noted: 24 mg/L; cited from earlier work.

In the case of `CC1(C)S[C@@H]2[C@H](NC(=O)[C@H](N)c3ccccc3)C(=O)N2[C@H]1C(=O)O` [AMP, ampicillin], the “increase in fluorescence intensity of plugs with antibiotic” value with MSSA is on record as “no increase in fluorescence intensity”. The “plug fluorescence compared to positive and negative controls (unpaired t-test)” value in assay [1] is listed as “statistically different than the negative control”.

As to `CN[C@H](CC(C)C)C(=O)N[C@H]1C(=O)N[C@@H](CC(N)=O)C(=O)N[C@H]2C(=O)N[C@H]3C(=O)N[C@H](C(=O)N[C@H](C(=O)O)c4cc(O)cc(O)c4-c4cc3ccc4O)[C@H](O)c3ccc(c(Cl)c3)Oc3cc2cc(c3O[C@@H]2O[C@H](CO)[C@@H](O)[C@H](O)[C@H]2O[C@H]2C[C@](C)(N)[C@H](O)[C@H](C)O2)Oc2ccc(cc2Cl)[C@H]1O` [VCM, vancomycin], the “inhibition of the S. aureus strain in macro-scale experiments” value in assay [2] is “inhibited”. In addition, the “plug fluorescence compared to positive and negative controls (unpaired t-test)” value in assay [1] is given as “statistically different than positive controls”.

As to `Cc1onc(-c2ccccc2)c1C(=O)N[C@@H]1C(=O)N2[C@@H]1SC(C)(C)[C@@H]2C(=O)O` [OXA, oxacillin], in assay [3], the “appearance of MSSA colonies on antibiotic plates” value is listed as “did not appear”. The “plug fluorescence compared to positive and negative controls (unpaired t-test)” value in assay [1] is reported as “statistically different than the negative control”.

Consider `CC[C@H]1OC(=O)[C@H](C)[C@@H](O[C@H]2C[C@@](C)(OC)[C@@H](O)[C@H](C)O2)[C@H](C)[C@@H](O[C@@H]2O[C@H](C)C[C@H](N(C)C)[C@H]2O)[C@](C)(O)C[C@@H](C)C(=O)[C@H](C)[C@@H](O)[C@]1(C)O` [ERT, erythromycin], for which the “plug fluorescence compared to positive and negative controls (unpaired t-test)” value in assay [1] is listed as “statistically different than the negative control”.

Consider `CO[C@@]1(NC(=O)Cc2cccs2)C(=O)N2C(C(=O)O)=C(COC(N)=O)CS[C@@H]21` [CFX, cefoxitin], for which the “known inhibition of the strain by CFX” value in assay [4] and in assay [5] was “inhibited” each time. In addition, the “appearance of MSSA colonies on antibiotic plates” value in assay [3] was “did not appear”. Besides, the “plug fluorescence compared to positive and negative controls (unpaired t-test)” value in assay [1] is given as “statistically different than the negative control”.

These data come from US20100227767A1, “STOCHASTIC CONFINEMENT TO DETECT, MANIPULATE, AND UTILIZE MOLECULES AND ORGANISMS” (priority 2007, published 2010).
